{"source": "patent US20060128744A1", "about": "“Use of 5-HT6 agonist for the treatment and prevention of neurodegenerative disorders” (Wyeth, priority 2004, published 2006)", "key": {"[1]": {"molecular_target": "T1, human cloned 5-HT6 receptors (Homo sapiens, UniProt P50406)", "T1 construct": "expressed in transfected cells; host or cells: HeLa cells (membrane preparation)", "T1 sequence (P50406 whole entry)": "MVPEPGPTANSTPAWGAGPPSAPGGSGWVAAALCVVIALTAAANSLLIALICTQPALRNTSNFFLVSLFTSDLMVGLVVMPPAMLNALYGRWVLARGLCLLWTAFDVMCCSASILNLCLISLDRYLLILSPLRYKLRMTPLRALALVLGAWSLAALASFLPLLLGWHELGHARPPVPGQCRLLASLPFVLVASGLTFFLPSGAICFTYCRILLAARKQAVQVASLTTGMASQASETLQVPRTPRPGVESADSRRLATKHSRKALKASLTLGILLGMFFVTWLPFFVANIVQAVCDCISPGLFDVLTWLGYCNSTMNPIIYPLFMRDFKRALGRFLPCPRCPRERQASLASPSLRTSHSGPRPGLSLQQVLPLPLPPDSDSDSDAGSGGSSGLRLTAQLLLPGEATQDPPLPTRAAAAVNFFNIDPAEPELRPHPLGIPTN", "assay": "5-HT6 binding affinity, [3H]-LSD displacement in membranes of Hela cells", "protocol": "The affinity of test compounds for the serotonin 5-HT6 receptor is evaluated in the following manner. Cultured Hela cells expressing human cloned 5-HT6 receptors are harvested and centrifuged at low speed (1,000×g) for 10.0 min to remove the culture media. The harvested cells are suspended in half volume of fresh physiological phosphate buffered saline solution and recentrifuged at the same speed. This operation is repeated. The collected cells are then homogenized in ten volumes of 50 mM Tris.HCl (pH 7.4) and 0.5 mM EDTA. The homogenate is centrifuged at 40,000×g for 30.0 min and the precipitate is collected. The obtained pellet is resuspended in 10 volumes of Tris.HCl buffer and recentrifuged at the same speed. The final pellet is suspended in a small volume of Tris.HCl buffer and the tissue protein content is determined in aliquots of 10-25 μl volumes. […] The volume of the suspended cell membranes is adjusted to give a tissue protein concentration of 1.0 mg/ml of suspension. […]\nThe bound complex caught on the filter disk is allowed to air dry and the radioactivity is measured in a Packard TopCount® equipped with six photomultiplier detectors, after the addition of 40.0 μl Microscint®-20 scintillant to each shallow well.\nBinding in the presence of varying concentrations of test compound is expressed as a percentage of specific binding in the absence of test compound. […]"}, "[2]": {"molecular_target": "T2, human 5-HT6 receptor stabily transfected into HELA cells (Homo sapiens, UniProt P50406)", "T2 construct": "expressed in transfected cells; host or cells: HeLa cells, stably transfected", "T2 sequence (P50406 whole entry)": "as above", "assay": "5-HT6 agonist activity using cAMP accumulation", "type": "cell-based", "protocol": "Upon initiation of the assay, the media from cell maintenance is aspirated and cells are preincubated at 37° C. for 15 mins. in KREBS buffer. Following this primary incubation, the buffer is aspirated and an additional incubation is performed at 37° C. for 5 mins. in KREBS buffer containing 500 uM IBMX (3-isobutyl-1-methylxanthine). […] The assay is terminated by the addition of 0.5M perchloric acid. […] Data are analyzed graphically with GraphPad Prism (GraphPad Software, San Diego, Calif.)."}, "[3]": {"system": "cortical neuron cultures from E16 rat embryos", "settings": "72 h", "protocol": "In this evaluation cortical neuron cultures are prepared from E16 rat embryos. […] Neurite outgrowth is determined after a 72 h period by staining cells with a tubulin antibody (TUJ-1) and measuring neurite length with the Cellomics ArrayScan, using the Enhanced Neurite Outgrowth (ENO) algorithm. The data are expressed as total neurite length."}, "[4]": {"system": "brain derived neurotrophic factor (BDNF) protein in cortical neuron cultures", "assay": "BDNF protein levels in cultured cortical neurons, sandwich ELISA", "type": "cell-based, rat", "settings": "72 h in culture", "protocol": "In this evaluation cortical neuron cultures are prepared from E16 rat embryos and plated on pre-coated 10 cm Petri dishes. […] Levels of brain derived neurotrophic factor (BDNF) protein were measured after a 72 h period by lysing the cells and using a BDNF sandwich ELISA. More specifically, ELISA plates were coated with an anti-BDNF monoclonal antibody. Nonspecific binding was blocked and 50 μg of sample protein was added. A second anti-BDNF antibody was added and incubated. An anti-IgY antibody conjugated with horseradish peroxidase was added and incubated. A TMB solution was added and the colorimetric reaction was measured in a plate reader (absorbance of 450 nm). BDNF levels are quantified after 72 h in culture."}, "[5]": {"system": "neuron cultures from E16 rat embryos", "settings": "72 h", "protocol": "In this evaluation neuron cultures are prepared from E16 rat embryos. […] After a 72 h period, neuronal survival is determined by a neurofilament ELISA.\nThe data are expressed as total neurofilament content."}, "[6]": {"system": "cerebellar granule neurons", "assay": "Oxygen glucose deprivation (OGD) in cerebellar granule neurons, LDH release", "type": "cell-based, rat", "settings": "4 h OGD, 24 h recovery", "protocol": "(§1) Cerebella isolated from P7 rat pup brains are cut into 1 mm pieces and transferred to a tube containing 0.3 mg/ml trypsin in HBSS. Following enzymatic digestion, the tissue is mechanically triturated. The supernatant is collected and centrifuged at 1200 rpm for 10 minutes. The resultant pellet is resuspended in complete media (Neurobasal, […], 0.5 mM L-glutamine, 100 U/ml penicillin, 100 μg/ml streptomycin, 10% FBS) and plated at a density of 0.5×10^6 cells/well in 24-well plates. After 24 h, media is exchanged with complete serum-free medial (Neurobasal, […], 0.5 mM L-glutamine, 100 U/ml penicillin, 100 μg/ml streptomycin, B-27 supplement).\nThis is a well characterized model of ischemia-like neuronal injury involving glutamate-induced excitotoxicity (A. Kaasik, et al, Neuroscience (2001) 102, pp427-432). Cultures are maintained for 14 days in vitro prior to experimentation. […] Following the 4 h OGD, deoxygenated buffer is exchanged with complete media. […] At the end of the 24-h period, cell death is determined by measuring lactate dehydrogenase (LDH) released into the media and is expressed as a percent of cell death. The results are shown in FIG. 3 and are presented as means±SD from 5 experiments. Sham bar represents results obtained with cultures subjected to manipulations and changes of culture media without OGD or drug treatment."}, "[7]": {"system": "cerebellar granule neurons", "assay": "Potassium withdrawal-induced apoptosis in cerebellar granule neurons, DNA fragmentation ELISA", "type": "cell-based, rat", "settings": "5 mM K+, 24 h", "protocol": "as §1\nPotassium withdrawal, i.e. replacement of […] in the CGN culture medium is a well established model of neuronal cell death by apoptosis (T. M. Miller and E. M. Johnson, Journal of Neuroscience, (1996) 16(23), pp7487-7495). Cultures are maintained for 7 days prior to experimentation. Complete media containing 25 mM K^+ is exchanged with complete media containing 5 mM K^+. […] After 24 h, apoptotic cell death is determined by measuring DNA fragmentation via ELISA. Apoptotic cell death is expressed as % apoptosis."}}, "note": "pKi: −log10 of the molar value.", "data": [{"smiles": "COc1ccc(OC)c(S(=O)(=O)c2cn(CCN)c3ncccc23)c1", "note": "[Test Compound A, (2-{3-[(2,5-dimethoxyphenyl)sulfonyl]-1H-pyrrolo[2,3-b]pyridin-1-yl}ethyl)amine]", "values": [{"measurement": "pKi", "setting": "[1]", "value": 8.44}, {"measurement": "Emax", "setting": "[2]", "value": 95, "unit": "%"}]}, {"smiles": "CN(C)CCn1cc(S(=O)(=O)c2cccc(F)c2)c2cccnc21", "note": "[Test Compound B, N-(2-{3-[(3-fluorophenyl)sulfonyl]-1H-pyrrolo[2,3-b]pyridin-1-yl}ethyl)-N,N-dimethylamine]", "values": [{"measurement": "total neurite length compared to vehicle treated controls", "setting": "[3]", "value": "increased total neurite length"}, {"measurement": "BDNF protein levels compared to vehicle treated control", "setting": "[4]", "value": "significantly increased BDNF protein levels"}, {"measurement": "neurofilament content compared to vehicle treated controls", "setting": "[5]", "value": "increases the neurofilament content"}]}, {"smiles": "NCCc1cn(S(=O)(=O)c2c(Cl)nc3sccn23)c2ccccc12", "note": "[Test Compound C]", "values": [{"measurement": "reduction of neuronal death", "setting": "[6]; 1 μM", "value": 50, "unit": "%"}, {"measurement": "effect on OGD-induced neuronal cell death", "setting": "[6]; 1 h pretreatment", "value": "dose-dependent reduction of neuronal cell death"}, {"measurement": "lowest concentration providing significant protection against OGD-induced cell death", "setting": "[6]; LDH release", "value": 10, "unit": "nM"}, {"measurement": "reduction of apoptotic cell death", "setting": "[7]; 0.3 μM", "value": 50, "unit": "%"}, {"measurement": "protection from apoptosis", "setting": "[7]; 3.0 μM", "value": "almost total protection from apoptosis"}, {"measurement": "effect on amount of fragmented DNA (measure of apoptosis)", "setting": "[7]", "value": "significantly, and dose dependently, attenuated"}]}]}
